From paper PMC12751000, “Dual Agonist/Antagonist Modulation of α9-Containing Nicotinic Acetylcholine Receptors by 2‑Ammoniumethyl Ethers of Stilbenol and Stilbenol Analogues” (Journal of Medicinal Chemistry, 2025)
“Also recorded” adds a separate entry of the source. Like-named read-outs stand apart in the source and are kept apart here.

Columns and labels:
Type in all cases: cell-based
[1] = tested on: BzATP-induced release of IL-1β from human monocytic THP-1 cells; assay: BzATP-induced IL-1β release by LPS-primed human monocytic THP-1 cells (ELISA); settings: for Effect on the inhibitory effect of ACh on BzATP-induced IL-1β release: LPS 1 μg/mL 5 h, BzATP 100 μM 40 min; for Effect on BzATP-induced IL-1β release in the absence of ACh: LPS-primed THP-1
Procedure: THP-1 cells were primed with lipopolysaccharide (LPS; 1 μg/mL, 5 h) followed by stimulation with the P2X7 receptor agonist BzATP (2′/3′-O-(4-benzoylbenzoyl)-adenosine-5′-triphosphate, tri(triethylammonium) salt) for 40 min to induce IL-1β release, which was quantified by ELISA.
Experiments on human monocytic THP-1 cells (German Collection of Microorganisms and Cell Cultures, Braunschweig, Germany, Cat# ACC16) were performed as described before. […] The supernatants were collected and stored for later IL-1β measurements using the Human IL-1β/IL-1F2 DuoSet ELISA from R&D Systems (Minneapolis MN, USA, Cat# DY201). Cell viability was assessed by measuring lactate dehydrogenase (LDH) activity in the supernatants using the CytoTox 96 Non-Radioactive Cytotoxicity Assay (Promega, Madison WI, USA; Cat# G1780). LDH activities were expressed as a percentage of total LDH activity from lysed control cells. Data on the BzATP-induced IL-1β release and LDH activity were analyzed using SPSS (Version 29.0.2.0, IBM, Armonk, NY, United States) and visualized using Inkscape version 0.48.5 r10040 (Free and Open Source Software licensed under the GPL). The data were analyzed first by the Friedman test.

[2] = biological target: T1, hα9α10 nAChRs (Homo sapiens, UniProt Q9GZZ6+Q9UGM1); assay: Two-electrode voltage clamp, inhibition of ACh-evoked currents at hα9α10 nAChRs expressed in Xenopus laevis oocytes; settings: for IC50 / n H (Hill coefficient of inhibition): 6 μM ACh; for IC50: 5 min preincubation with compound, holding potential −80 mV
T1 construct: host or cells: Xenopus laevis oocytes, cRNA-injected (α9:α10 cRNA ratio 1:1)
T1 sequence (Q9UGM1 26-479 limits assumed): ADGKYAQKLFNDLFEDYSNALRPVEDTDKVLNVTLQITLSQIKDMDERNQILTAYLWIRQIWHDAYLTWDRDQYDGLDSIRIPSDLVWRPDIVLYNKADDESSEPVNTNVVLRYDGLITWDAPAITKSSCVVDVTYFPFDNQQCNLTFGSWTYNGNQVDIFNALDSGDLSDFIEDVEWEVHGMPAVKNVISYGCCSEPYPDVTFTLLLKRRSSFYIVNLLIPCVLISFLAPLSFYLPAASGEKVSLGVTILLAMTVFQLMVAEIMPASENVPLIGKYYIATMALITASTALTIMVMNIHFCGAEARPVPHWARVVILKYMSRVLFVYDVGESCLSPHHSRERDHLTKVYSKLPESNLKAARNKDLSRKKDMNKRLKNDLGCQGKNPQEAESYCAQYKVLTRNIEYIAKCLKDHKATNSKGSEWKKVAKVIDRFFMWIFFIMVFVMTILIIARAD
T1 sequence (Q9GZZ6 25-450): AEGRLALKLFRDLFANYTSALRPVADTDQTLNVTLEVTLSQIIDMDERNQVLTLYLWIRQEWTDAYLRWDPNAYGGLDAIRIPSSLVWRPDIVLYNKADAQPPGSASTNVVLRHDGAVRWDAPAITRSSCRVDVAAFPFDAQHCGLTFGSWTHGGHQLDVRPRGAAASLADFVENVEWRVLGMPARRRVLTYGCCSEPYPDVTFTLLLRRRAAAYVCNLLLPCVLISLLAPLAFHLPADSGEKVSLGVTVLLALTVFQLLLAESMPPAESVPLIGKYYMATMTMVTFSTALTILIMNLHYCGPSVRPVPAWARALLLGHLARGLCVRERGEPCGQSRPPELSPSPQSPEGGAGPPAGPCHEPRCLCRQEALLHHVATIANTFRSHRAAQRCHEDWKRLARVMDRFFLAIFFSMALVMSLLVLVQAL
Text: (§1) The protocols were approved by the Animal Ethics Committees of the Victor Chang Cardiac Research Institute, Sydney, and the University of Wollongong (project number AE 20/17). Human α9 and α10 nAChR clones were obtained from OriGene (Rockville, MD, USA) and subcloned into the pT7TS vector. The human α7 nAChR clone, in the plasmid pMXT, was kindly provided by J. Lindstrom (University of Pennsylvania, USA). Constructs of human nAChR subunits were linearized and used for in vitro cRNA transcription with the SP6/T7 mMessage mMachine transcription kit (AMBION, Forster City, CA, USA).
(§2) The cRNA concentration was verified spectrophotometrically and by gel electrophoresis.
(§3) Electrophysiological recordings were conducted 2–5 days after cRNA injection using a HiClamp automated two-electrode voltage-clamp screening system (MultiChannel Systems GmbH, Reutlingen, Germany) with a holding potential of –80 mV. To prevent the activation of endogenous Ca^2+-activated chloride channels due to the Ca^2+ permeability of α9-containing nAChRs, oocytes were preincubated with 100 μM BAPTA-AM for approximately 3 h.
For concentration–response experiments assessing modulation of ACh-evoked responses, oocytes were initially superfused with ND96 or ND115 solution, depending on the receptor subtype. […] After ACh application, a 3 min washout was performed. Oocytes were then incubated with the test compound for 5 min, followed by coapplication of the compound and ACh in a continuously flowing bath solution. All compounds were prepared in ND96 or ND115 with 0.1% bovine serum albumin (BSA).

[3] = biological target: T1, hα9α10 nAChRs; assay: Two-electrode voltage clamp, compound-evoked currents (compound applied alone) at hα9α10 nAChRs in Xenopus laevis oocytes
Text: as §1, §2, §3
Concentration–response experiments assessing compound-evoked currents were performed by initially superfusing α9-containing nAChRs oocytes with ND115 solution. Test compounds were then applied at concentrations ranging from 300 pM to 30 μM, followed by a 3 min washout period.

[4] = biological target: T2, hα7 nAChRs (Homo sapiens, UniProt P36544); assay: Two-electrode voltage clamp, compound-evoked currents at hα7 nAChRs in Xenopus laevis oocytes; settings: compound applied alone
T2 construct: host or cells: Xenopus laevis oocytes, cRNA-injected (10 ng)
T2 sequence (P36544 23-502): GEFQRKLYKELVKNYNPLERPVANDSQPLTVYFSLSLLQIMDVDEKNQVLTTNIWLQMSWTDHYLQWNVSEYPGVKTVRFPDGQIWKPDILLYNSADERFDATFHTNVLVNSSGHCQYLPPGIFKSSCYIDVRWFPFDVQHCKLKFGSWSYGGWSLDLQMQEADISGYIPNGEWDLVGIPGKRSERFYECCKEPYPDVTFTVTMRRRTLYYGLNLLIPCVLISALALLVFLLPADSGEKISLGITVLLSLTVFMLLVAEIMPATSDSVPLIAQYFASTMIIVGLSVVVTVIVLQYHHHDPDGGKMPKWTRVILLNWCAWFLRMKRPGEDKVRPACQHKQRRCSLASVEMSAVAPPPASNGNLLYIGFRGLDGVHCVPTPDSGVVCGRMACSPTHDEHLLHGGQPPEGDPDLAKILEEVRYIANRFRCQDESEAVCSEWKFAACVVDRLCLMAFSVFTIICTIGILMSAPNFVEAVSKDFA
Procedure: Additionally, five compounds of the series were tested on the homomeric hα7 and hα9 nAChRs.
as §1, §2, §3

[5] = biological target: T3, hα9 nAChRs (Homo sapiens, UniProt Q9UGM1); assay: Two-electrode voltage clamp, compound-evoked currents at hα9 nAChRs in Xenopus laevis oocytes; settings: for n H (Hill coefficient of activation) / EC50: compound applied alone; for EC50: read-out: EC50
T3 construct: host or cells: Xenopus laevis oocytes, cRNA-injected
T3 sequence (Q9UGM1 26-479 limits assumed): as the sequence (Q9UGM1 26-479 limits assumed) above

[6] = biological target: T3, hα9 nAChRs; assay: Two-electrode voltage clamp, inhibition of ACh-evoked currents at hα9 nAChRs in Xenopus laevis oocytes; settings: for n H (Hill coefficient of inhibition) / IC50: 50 μM ACh; for IC50: 5 min preincubation
[7] = biological target: T2, hα7 nAChRs; assay: Two-electrode voltage clamp, inhibition of ACh-evoked currents at hα7 nAChRs in Xenopus laevis oocytes; settings: for n H (Hill coefficient of inhibition) / IC50: 100 μM ACh; for IC50: 5 min preincubation
[8] = compound applied alone (300 pM to 30 μM), normalized to response at highest concentration, read-out: EC50

Structure (SMILES) | IC50 [2] [nM] | EC50 [3, 8] [nM] | IC50 ratio to Cpd 1 [2] | n H (Hill coefficient of inhibition) [2] | EC50 ratio to Cpd 1 [3] | n H (Hill coefficient of activation) ([3]; compound applied alone) | other results
CC(=O)OCC[N+](C)(C)C [ACh, acetylcholine] | – | – | – | – | – | – | Effect on BzATP-induced IL-1β release ([1]; ACh 10 μM applied shortly before BzATP): significantly reduced
CC[N+](CC)(CC)CCOc1ccc(CCc2ccccc2)cc1 [Compound 4] | 189 | 1140 | – | – | – | – | –
C[N+](C)(CCOc1ccc(/C=C/c2ccccc2)cc1)C1CCOCC1.[I-] [Compound 6, (E)-N,N-Dimethyl-N-(2-(4-styrylphenoxy)ethyl)tetrahydro-2H-pyran-4-aminium Iodide] | 55 | 185 | 0.9 | 2.1 | 0.5 | 2.4 | –
C[N+](C)(CCOc1ccc(/C=C/c2ccccc2)cc1)C1CCCC1.[I-] [Compound 7, (E)-N,N-Dimethyl-N-(2-(4-styrylphenoxy)ethyl)cyclopentanaminium Iodide] | 22.1 | 175 | 0.4 | 1.7 | 0.5 | 1.6 | –
C[N+](C)(CCOc1ccc(/C=C/c2ccccc2)cc1)C1CCCCCC1.[I-] [Compound 8, (E)-N,N-Dimethyl-N-(2-(4-styrylphenoxy)ethyl)cycloheptanaminium Iodide] | 124 | 300 | 2.1 | 2.6 | 0.8 | 1.6 | –
C[N+](C)(CCOc1ccc(/C=C/c2ccccc2)cc1)c1ccccc1.[I-] [Compound 9, (E)-N,N-Dimethyl-N-(2-(4-styrylphenoxy)ethyl)benzenaminium Iodide] | 95.1 | 474 | 1.6 | 2.1 | 1.2 | 3.3 | –
C[N+](C)(CCOc1ccc(/C=C/c2ccccc2)cc1)Cc1ccccc1.[Br-] [Compound 10, (E)-N-Benzyl-N,N-dimethyl-2-(4-styrylphenoxy)ethanaminium Bromide] | 124 | 448 | 2.1 | 2.1 | 1.2 | 2.4 | –
C[N+](CCOc1ccc(/C=C/c2ccccc2)cc1)(C1CCCC1)C1CCCC1.[I-] [Compound 12, (E)-N-Cyclopentyl-N-methyl-N-(2-(4-styrylphenoxy)ethyl)cyclopentanaminium Iodide] | 378 | 1710 | 6.3 | 3.0 | 4.4 | 1.2 | –
C[N+](CCOc1ccc(/C=C/c2ccccc2)cc1)(Cc1ccccc1)Cc1ccccc1 [Compound 13] | 1110 | 7040 | – | – | – | – | EC50 ([3]; compound applied alone, read-out: EC50): > 5000 nM
C[N+](C)(CCCOc1ccc(/C=C/c2ccccc2)cc1)C1CCCCC1.[I-] [Compound 14, (E)-N,N-Dimethyl-N-(3-(4-styrylphenoxy)propyl)cyclohexanaminium Iodide] | 98.9 | 511 | 1.6 | 2.1 | 1.3 | 3.0 | –
C[N+](C)(CCCCOc1ccc(/C=C/c2ccccc2)cc1)C1CCCCC1.[I-] [Compound 15, (E)-N,N-Dimethyl-N-(4-(4-styrylphenoxy)butyl)cyclohexanaminium Iodide] | 124 | 1470 | 2.1 | 2.0 | 3.8 | 1.4 | –
C[N+](C)(CCOc1ccc(CCc2ccccc2)cc1)C1CCCCC1.[I-] [Compound 16, N,N-Dimethyl-N-(2-(4-phenethylphenoxy)ethyl)cyclohexanaminium Iodide] | 168 | 482 | 2.8 | 3.8 | 1.3 | 3.2 | Effect on the inhibitory effect of ACh on BzATP-induced IL-1β release ([1]; compound 100 pM + ACh 10 μM): efficiently antagonized the inhibitory effect of ACh; Effect on BzATP-induced IL-1β release in the absence of ACh ([1]; compound 100 pM): minor reduction; Effect on BzATP-induced IL-1β release in the absence of ACh ([1]; compound 100 nM): effectively and significantly inhibited; EC50 [4]: no agonist activity; EC50 ratio to Cpd 1 [5]: 1.1; n H (Hill coefficient of activation) [5]: 2.4; EC50 [5]: 983 nM; IC50 ratio to Cpd 1 [6]: 0.7; n H (Hill coefficient of inhibition) [6]: 1.5; IC50 [6]: 133 nM; IC50 ratio to Cpd 1 [7]: 1.0; n H (Hill coefficient of inhibition) [7]: 1.8; IC50 [7]: 434 nM
CC[N+](CC)(CC)CCOc1ccc(-c2ccccc2)cc1 [Compound 17] | 117 | 479 | 1.9 | 1.4 | 1.2 | 3.3 | –
CC[N+](CC)(CC)CCOc1ccc(C#Cc2ccccc2)cc1 [Compound 18] | 89 | 550 | 1.5 | 1.8 | 1.4 | 2.2 | –
CC[N+](CC)(CC)CCOc1ccc(OCc2ccccc2)cc1 [Compound 19] | 207 | 1020 | 3.4 | 1.6 | 2.6 | 1.9 | –
CC[N+](CC)(CC)CCOc1ccc(COc2ccccc2)cc1 [Compound 20] | 139 | – | 2.3 | 1.7 (1.6–1.8) [8] | – | – | EC50 ([3]; compound applied alone (300 pM to 30 μM), normalized to response at highest concentration): failed to activate; also recorded: failed to evoke currents; also recorded: No activity
C[N+](C)(CCOc1ccc(OCc2ccccc2)cc1)C1CCCCC1.[I-] [Compound 21, N-(2-(4-(Benzyloxy)phenoxy)ethyl)-N,N-dimethylcyclohexanaminium Iodide] | 39.1 | 338 | 0.6 | 1.7 | 0.9 | 3.7 | Effect on the inhibitory effect of ACh on BzATP-induced IL-1β release ([1]; compound 100 pM + ACh 10 μM): efficiently antagonized the inhibitory effect of ACh; Effect on BzATP-induced IL-1β release in the absence of ACh ([1]; compound 100 pM): minor reduction; Effect on the inhibitory effect of ACh on BzATP-induced IL-1β release ([1]; compound 100 nM + ACh 10 μM): mild antagonistic effects; Effect on BzATP-induced IL-1β release in the absence of ACh ([1]; compound 100 nM): effectively and significantly inhibited; EC50 [4]: No activity; EC50 ratio to Cpd 1 [5]: 1.0; n H (Hill coefficient of activation) [5]: 2.2; EC50 [5]: 905 nM; IC50 ratio to Cpd 1 [6]: 0.9; n H (Hill coefficient of inhibition) [6]: 1.6; IC50 [6]: 171 nM; IC50 ratio to Cpd 1 [7]: 1.0; n H (Hill coefficient of inhibition) [7]: 1.5; IC50 [7]: 419 nM
